Read-outs that look alike come from different tables or passages of the source.
Test system: human Ewing's sarcoma TC-71
Assay type: in vivo
Details: for Average body weight change in % per mouse at nadir / Drug death / Regressions Complete / Regressions Partial / Tumor free survivors at day 120 / day of nadir / Biological interpretation / ΔT/ΔC in % (day 21): 16
Description: This efficacy may be quantified, for example, as changes in tumor volume for each treated (T) and control (C) group, which are calculated for each animal and each day by subtracting the tumor volume on the day of first treatment (staging day) from the tumor volume on the specified observation day. This allows calculating the tumor growth inhibition: ΔT/ΔC=(median delta T/median delta C)×100. Individual tumor volume changes from baseline are thereafter analyzed by a non-parametric two-way ANOVA-TYPE (with factors: group and repeated days) followed by a post-hoc contrasts analysis, with Bonferroni-Holm adjustment for multiplicity, comparing all treated groups to the control group. […] A probability less than 5% (p<0.05) was considered as significant.
Based on the National Cancer Institute (NCl) standards, a ΔT/ΔC≦40% is the minimal level required to declare activity.
The tumor doubling time (in days; Td) was estimated from the plot of the log linear growth of the control group tumors in exponential growth (100 to 1000 mm^3 range) [T. H. Corbett et al., Cancer, 40: 2660-2680 (1977); F. M. Schabel et al., Cancer Drug Development, Part B, Methods in Cancer Research, 17: 3-51, New York, Academic Press Inc. (1979)].
This efficacy may also be quantified by the number of tumor regressions observed after therapy. Individual mice reporting a tumor volume ≦50% of the Day 0 measurement for two consecutive measurements over a seven day period were considered partial responders (PR). Individual mice lacking palpable tumors (<4×4 mm^2 for two consecutive measurements over a seven day period) were classified as complete responders (CR); a CR that persisted until study completion was considered a tumor-free survivor (TFS).
The animals subjected to the experiment are subcutaneously grafted unilaterally with approximately 30 mg of a tumor fragment on day 0. The animals are implanted with a human tumor xenografted in immunocompromized mice. Several days post tumor implantation, mice are randomized according to their body weight to the different groups of treatments and controls. The animals are observed every day. […] The groups are then weighed once or twice a week until the end of the trial.
The tumors are measured 1 to 5 times a week, depending on the tumor doubling time, until the tumor reaches approximately 1,000 mm^3, or until the animal dies (if this occurs before the tumor reaches 1,000 mm^3). The animals are necropsied immediately after euthanasia or death.
The selected tumor model was a human Ewing's sarcoma TC-71, xenografted in SCID mice [Whang-Peng J, et al. Cancer Genet Cytogenet. 1986 Apr. 1; 21(3):185208].
Treatment solutions were prepared first by mixing 1 volume of ethanolic stock solution and 1 volume of polysorbate 80, then by adding 18 volumes of glucose 5% in water.

[1] = 3.5 mg/kg per injection (total 7.0) IV days 12
[2] = 3.5 mg/kg per injection (total 7.0) IV days 12, listed as DOCETAXEL
[3] = 3.5 mg/kg per injection (total 7.0) IV days 12, listed as docetaxel
[4] = 5.6 mg/kg per injection (total 11.2) IV days 12
[5] = 9.0 mg/kg per injection (total 18) IV days 12
[6] = 9.0 mg/kg per injection (total 18) IV days 12, listed as DOCETAXEL
[7] = 9.0 mg/kg per injection (total 18) IV days 12, listed as docetaxel
[8] = 14.5 mg/kg per injection (total 29) IV days 12
[9] = 14.5 mg/kg per injection (total 29) IV days 12, listed as DOCETAXEL
[10] = 5.6 mg/kg per injection (total 11.2) IV days 12, listed as CABAZITAXEL
[11] = 9.0 mg/kg per injection (total 18) IV days 12, listed as CABAZITAXEL
[12] = 14.5 mg/kg per injection (total 29) IV days 12, listed as CABAZITAXEL

CC(=O)O[C@@]12CO[C@@H]1C[C@H](O)[C@@]1(C)C(=O)[C@H](O)C3=C(C)[C@@H](OC(=O)[C@H](O)[C@@H](NC(=O)OC(C)(C)C)c4ccccc4)C[C@@](O)([C@@H](OC(=O)c4ccccc4)[C@H]21)C3(C)C [Docetaxel, docetaxel]
Average body weight change in % per mouse at nadir [1]: −1.8%
Drug death [1]: 0/7
Regressions Complete [1]: 0/7
Regressions Partial [1]: 0/7
Tumor free survivors at day 120 [1]: 0/7
day of nadir [1]: 13 days
Biological interpretation [2]: Inactive
ΔT/ΔC in % (day 21) [2]: 77%
Biological interpretation [3]: inactive
ΔT/ΔC in % (day 21) [3]: > 40%
Tumor volume changes from baseline: Median (nMad) (3.5 mg/kg, day 19): 629
Tumor volume changes from baseline: Median (nMad) (3.5 mg/kg, day 21): 1044
Average body weight change in % per mouse at nadir [4]: −13.7%
Drug death [4]: 0/7
Regressions Complete [4]: 0/7
Regressions Partial [4]: 0/7
Tumor free survivors at day 120 [4]: 0/7
day of nadir [4]: 22 days
ΔT/ΔC in % (day 21) [4]: 31%
Biological interpretation (5.6 mg/kg per injection (total 11.2) IV days 12, listed as DOCETAXEL): Active
Biological interpretation (5.6 mg/kg per injection (total 11.2) IV days 12, listed as docetaxel): active
Tumor volume changes from baseline: Median (nMad) (5.6 mg/kg, day 19): 371
Tumor volume changes from baseline: Median (nMad) (5.6 mg/kg, day 21): 416
Tumor volume changes from baseline: Median (nMad) (5.6 mg/kg, day 26): 1022.5
Average body weight change in % per mouse at nadir [5]: −10.8%
Drug death [5]: 0/7
Regressions Complete [5]: 0/7
Tumor free survivors at day 120 [5]: 0/7
day of nadir [5]: 23 days
Biological interpretation [6]: Highly Active
Regressions Partial [6]: 2/7
ΔT/ΔC in % (day 21) [6]: <0%
Biological interpretation [7]: highly active
Regressions Partial [7]: 5/7
Tumor volume changes from baseline: Median (nMad) (9 mg/kg, day 19): 139
Tumor volume changes from baseline: Median (nMad) (9 mg/kg, day 21): −36
Tumor volume changes from baseline: Median (nMad) (9 mg/kg, day 26): 158
Tumor volume changes from baseline: Median (nMad) (9 mg/kg, day 30): 406 (252)
Tumor volume changes from baseline: Median (nMad) (9 mg/kg, day 34): 867 (209)
Average body weight change in % per mouse at nadir [8]: −12.4%
Drug death [8]: 0/7
Regressions Complete [8]: 2/7
Regressions Partial [8]: 6/7
Tumor free survivors at day 120 [8]: 1/7
day of nadir [8]: 23 days
Biological interpretation [9]: Highly Active
ΔT/ΔC in % (day 21) [9]: <0%
Biological interpretation (14.5 mg/kg per injection (total 29) IV days 12, listed as docetaxel): highly active
Tumor volume changes from baseline: Median (nMad) (14.5 mg/kg, day 16): 154
Tumor volume changes from baseline: Median (nMad) (14.5 mg/kg, day 19): −72
Tumor volume changes from baseline: Median (nMad) (14.5 mg/kg, day 21): −130
Tumor volume changes from baseline: Median (nMad) (14.5 mg/kg, day 26): −130
Tumor volume changes from baseline: Median (nMad) (14.5 mg/kg, day 28): −144
Tumor volume changes from baseline: Median (nMad) (14.5 mg/kg, day 30): −126
Tumor volume changes from baseline: Median (nMad) (14.5 mg/kg, day 34): −49
Tumor volume changes from baseline: Median (nMad) (14.5 mg/kg, day 36): 75 (330.6)
Tumor volume changes from baseline: Median (nMad) (14.5 mg/kg, day 40): 763

CO[C@H]1C(=O)[C@]2(C)[C@@H](OC)C[C@H]3OC[C@@]3(OC(C)=O)[C@H]2[C@H](OC(=O)c2ccccc2)[C@]2(O)C[C@H](OC(=O)[C@H](O)[C@@H](NC(=O)OC(C)(C)C)c3ccccc3)C(C)=C1C2(C)C [Cabazitaxel, 4α-acetoxy-2α-benzoyloxy-5β,20-epoxy-1β-hydroxy-7β,10β-dimethoxy-9-oxo-11-taxen-13α-yl (2R,3S)-3-tert-butoxycarbonyl-amino-2-hydroxy-3-phenylpropionate]
Average body weight change in % per mouse at nadir [1]: −2.3%
Biological interpretation [1]: active
Drug death [1]: 0/7
Regressions Complete [1]: 0/7
Regressions Partial [1]: 0/7
Tumor free survivors at day 120 [1]: 0/7
day of nadir [1]: 21 days
ΔT/ΔC in % (day 21) [1]: 27%
Biological interpretation (3.5 mg/kg per injection (total 7.0) IV days 12, listed as CABAZITAXEL): Active
Average body weight change in % per mouse at nadir [4]: −7.0%
Drug death [4]: 0/7
Regressions Complete [4]: 0/7
Regressions Partial [4]: 6/7
Tumor free survivors at day 120 [4]: 0/7
day of nadir [4]: 18 days
Biological interpretation [10]: Highly Active
ΔT/ΔC in % (day 21) [10]: <0%
Biological interpretation (5.6 mg/kg per injection (total 11.2) IV days 12, listed as cabazitaxel): highly active
Tumor volume changes from baseline: Median (nMad) (5.6 mg/kg, day 26): −162 (65.2)
Average body weight change in % per mouse at nadir [5]: −7.0%
Drug death [5]: 0/7
Regressions Complete [5]: 6/7
Regressions Partial [5]: 7/7
Tumor free survivors at day 120 [5]: 6/7
day of nadir [5]: 18 days
Biological interpretation [11]: Highly Active
ΔT/ΔC in % (day 21) [11]: <0%
Biological interpretation (9.0 mg/kg per injection (total 18) IV days 12, listed as cabazitaxel): highly active
Tumor volume changes from baseline: Median (nMad) (9 mg/kg, day 26): −196 (51.9)
Tumor volume changes from baseline: Median (nMad) (9 mg/kg, day 28): −196 (50.4)
Tumor volume changes from baseline: Median (nMad) (9 mg/kg, day 30): −196 (50.4)
Tumor volume changes from baseline: Median (nMad) (9 mg/kg, day 34): −196 (72.6)
Average body weight change in % per mouse at nadir [8]: −9.0%
Drug death [8]: 0/7
Regressions Complete [8]: 7/7
Regressions Partial [8]: 7/7
Tumor free survivors at day 120 [8]: 6/7
day of nadir [8]: 23 days
Biological interpretation [12]: Highly Active
ΔT/ΔC in % (day 21) [12]: <0%
Biological interpretation (14.5 mg/kg per injection (total 29) IV days 12, listed as cabazitaxel): highly active
Tumor volume changes from baseline: Median (nMad) (14.5 mg/kg, day 26): −184 (43)
Tumor volume changes from baseline: Median (nMad) (14.5 mg/kg, day 28): −194 (47.4)
Tumor volume changes from baseline: Median (nMad) (14.5 mg/kg, day 30): −198 (53.4)
Tumor volume changes from baseline: Median (nMad) (14.5 mg/kg, day 34): −198 (53.4)
Tumor volume changes from baseline: Median (nMad) (14.5 mg/kg, day 36): −180 (53.4)
Tumor volume changes from baseline: Median (nMad) (14.5 mg/kg, day 40): −180 (53.4)
antitumor activity compared with docetaxel (conclusion of example 2): more active than docetaxel

Reference: patent US20140350273A1, “PEDIATRIC USES OF CABAZITAXEL” (AVENTIS PHARMA S.A., priority 2012, published 2014)
